Data on one molecule can be found in patent US20210009959A1, “METHODS FOR ENHANCING OSTEOGENIC DIFFERENTIATION USING VITAMIN D” (priority 2019, published 2021).

Assay [1] has as its system human adipose stem cells (hASCs). Description: Osteogenic gene expression of hASCs seeded on BCP20/80 scaffold. In kind it is cell-based. Conditions: for RUNX2 gene expression, increase: 30 min incubation. The protocol:
In one embodiment, a method of static culture of hASCs by pre-treatment with vitamin D3 (calcitriol) and attachment of hASCs to the scaffold used in one-step surgical procedure comprises the following steps. At one step, isolating hASCs as explained in FIG. 1. In an embodiment, the hASCs from three donors at passage 3 are used for further processing. As an optional step, the obtained hASCs are either or not incubated for a period of about 30 mins with low concentrated calcitriol of about 10 nM at room temperature.
At next step, the calcitriol treated hASCs are washed twice with Phosphate Buffered Saline (PBS) to remove calcitriol. Further, the washed hASCs are centrifuged and resuspended in Dulbecco's Minimum Essential Medium (DMEM) without any supplements. At another step, the resuspended cells are seeded on the scaffold and allowed to attach to the scaffolds for a period of about 30 minutes. At next step, the scaffolds with attached cells are transferred to 12-well plates with Costar® Transwell® containers (Corning Life Sciences, Lowell, Mass., USA) containing expansion medium (DMEM) supplemented with 10% Fetal Clone I (FCI), antibiotics (1% penicillin/streptomycin/fungizone (PSF)), 50 μM ascorbic acid (Merck, Darmstadt, Germany), and 10 mM β-glycerol phosphate (Merck, Darmstadt, Germany) (PLGA/β-TCP). At next step, the hASCs seeded scaffolds are incubated at 5% CO2 in a humidified incubator at predefined temperature of about 37° C. for a period of about 3 weeks.
Referring to FIGS. 8A to 8I, the effects of short and long calcitriol treatment on osteogenic gene expression of hASCs is disclosed, where hASCs are seeded in BCP scaffold. The stimulatory effect of 30 min calcitriol on osteogenic gene expression in hASCs seeded on BCP20/80 at day 21 is more noticeable than continuous calcitriol treatment. The 30 mins incubation with calcitriol increases the RUNX2 (early osteogenic marker) gene expression in hASCs by 3.6-fold after 2 weeks, and 5.7-fold after 3 weeks of culture compared to non-treated hASCs. FIGS. 8A to 8I exemplarily illustrate the effects of calcitriol treatment on osteogenic gene expression of hASCs.
The 30 minutes pre-treatment of hASCs with calcitriol increases VEGF189 gene expression, whereas in continuous calcitriol treatment, the VEGF189 gene expression reaches almost steady expression levels during the 3 weeks of culture. The VEGF189 gene expression in 30 minutes calcitriol pre-treated hASCs is increased by 1.5-fold at day 21, but it is decreased in continuous treatment by 0.6-fold compared to non-treated hASCs as shown in FIG. 8I.

Assay [2] has the same test system. Description: hASC attachment to BCP20/80 scaffolds after calcitriol pre-treatment. The class given is cell-based. On the procedure: In one embodiment, a method of static culture of hASCs by pre-treatment with vitamin D3 (calcitriol) and attachment of hASCs to the scaffold used in one-step surgical procedure comprises the following steps. At one step, isolating hASCs as explained in FIG. 1. In an embodiment, the hASCs from three donors at passage 3 are used for further processing. As an optional step, the obtained hASCs are either or not incubated for a period of about 30 mins with low concentrated calcitriol of about 10 nM at room temperature. At next step, the calcitriol treated hASCs are washed twice with Phosphate Buffered Saline (PBS) to remove calcitriol. Further, the washed hASCs are centrifuged and resuspended in Dulbecco's Minimum Essential Medium (DMEM) without any supplements. At another step, the resuspended cells are seeded on the scaffold and allowed to attach to the scaffolds for a period of about 30 minutes. At next step, the scaffolds with attached cells are transferred to 12-well plates with Costar® Transwell® containers (Corning Life Sciences, Lowell, Mass., USA) containing expansion medium (DMEM) supplemented with 10% Fetal Clone I (FCI), antibiotics (1% penicillin/streptomycin/fungizone (PSF)), 50 μM ascorbic acid (Merck, Darmstadt, Germany), and 10 mM β-glycerol phosphate (Merck, Darmstadt, Germany) (PLGA/β-TCP). […]

The mark [3] stands for this setting: continuous treatment, 3 weeks of culture.

For the molecule `C=C1/C(=C\C=C2/CCC[C@]3(C)[C@@H]([C@H](C)CCCC(C)(C)O)CC[C@@H]23)C[C@@H](O)C[C@@H]1O` [calcitriol, 1,25-dihydroxyvitamin D3], in assay [1] (30 min calcitriol, BCP20/80), the ALP gene expression result is recorded as “upregulates”. Further, the “RUNX2 gene expression, increase” value was found to be 3.6 fold in assay [1] (after 2 weeks, vs non-treated hASCs) and 5.7 fold in assay [1] (after 3 weeks, vs non-treated hASCs). The CYP24 gene expression entry in assay [1] (30 min pre-treated cells) is listed as “not expressed”; in assay [1] (setting [3]) it was “remarkably increases”. In addition, the Ki-67 gene expression result in assay [1] (30 min pre-treatment, 3 weeks of culture) was “decreases”; in assay [1] (setting [3]), “no change”. Also, the VDR gene expression entry in assay [1] (30 min pre-treatment, compared to continuous treatment, maximal stimulation at day 14) is “increases”. For the same molecule, in assay [1] (30 min pre-treatment, day 14), the “SPARC expression, increase” value came to 2.1 fold. Besides, the “VEGF189 gene expression, increase” value in assay [1] (30 min pre-treatment, day 21, vs non-treated hASCs) is given as 1.5 fold. In addition, in assay [1] (30 min treatment, day 21), the OPN expression entry is “increases”. In addition, the “RUNX2 expression, decrease” value in assay [1] (continuous treatment, after 2 weeks) was 0.81 fold. The “RUNX2 expression, increase” value in assay [1] (continuous treatment, after 3 weeks) is reported as 2.4 fold. The OPN gene expression entry in assay [1] (continuous treatment, day 4) is “upregulates”. Moreover, the “SPARC expression, decrease” value in assay [1] (continuous treatment, day 14) came to 0.8 fold. Further, in assay [1] (continuous treatment, day 21, vs non-treated hASCs), the “VEGF189 gene expression, decrease” value is 0.6 fold. In addition, the DMP1 gene expression result in assay [1] (over about 3 weeks, treatment group not specified) was “gradual and insignificant increase”. Also, the “cell attachment to BCP scaffolds” value in assay [2] (30 min pre-treatment with 10 nM calcitriol (non-treated 54%)) is 83%. Moreover, the “cell attachment to BCP scaffolds, increase” value in assay [2] (30 min pre-treatment with 10 nM calcitriol, vs non-treated cells) was found to be 1.5 fold.
